Patent US8318762B2, “Pyrazolospiroketone acetyl-CoA carboxylase inhibitors” (Pfizer Inc., priority 2008, dated 2012)

Each molecule was assayed against T1, recombinant human ACC2 (Homo sapiens, UniProt O00763) (assay: Measurement of human ACC2 inhibition (recombinant hACC2 Transcreener ADP detection FP assay)). Conditions: recombinant hACC2 transcreener assay; read-out: rhACC2 IC50.
T1 construct: a full length Cytomax clone of ACC2 was purchased from Cambridge Bioscience Limited; made in house; host or cells: CHO cells (tetracycline induction, pcDNA5 FRT TO-TOPO); purified on a Softlink Soft Release Avidin column
T1 sequence (O00763 whole entry): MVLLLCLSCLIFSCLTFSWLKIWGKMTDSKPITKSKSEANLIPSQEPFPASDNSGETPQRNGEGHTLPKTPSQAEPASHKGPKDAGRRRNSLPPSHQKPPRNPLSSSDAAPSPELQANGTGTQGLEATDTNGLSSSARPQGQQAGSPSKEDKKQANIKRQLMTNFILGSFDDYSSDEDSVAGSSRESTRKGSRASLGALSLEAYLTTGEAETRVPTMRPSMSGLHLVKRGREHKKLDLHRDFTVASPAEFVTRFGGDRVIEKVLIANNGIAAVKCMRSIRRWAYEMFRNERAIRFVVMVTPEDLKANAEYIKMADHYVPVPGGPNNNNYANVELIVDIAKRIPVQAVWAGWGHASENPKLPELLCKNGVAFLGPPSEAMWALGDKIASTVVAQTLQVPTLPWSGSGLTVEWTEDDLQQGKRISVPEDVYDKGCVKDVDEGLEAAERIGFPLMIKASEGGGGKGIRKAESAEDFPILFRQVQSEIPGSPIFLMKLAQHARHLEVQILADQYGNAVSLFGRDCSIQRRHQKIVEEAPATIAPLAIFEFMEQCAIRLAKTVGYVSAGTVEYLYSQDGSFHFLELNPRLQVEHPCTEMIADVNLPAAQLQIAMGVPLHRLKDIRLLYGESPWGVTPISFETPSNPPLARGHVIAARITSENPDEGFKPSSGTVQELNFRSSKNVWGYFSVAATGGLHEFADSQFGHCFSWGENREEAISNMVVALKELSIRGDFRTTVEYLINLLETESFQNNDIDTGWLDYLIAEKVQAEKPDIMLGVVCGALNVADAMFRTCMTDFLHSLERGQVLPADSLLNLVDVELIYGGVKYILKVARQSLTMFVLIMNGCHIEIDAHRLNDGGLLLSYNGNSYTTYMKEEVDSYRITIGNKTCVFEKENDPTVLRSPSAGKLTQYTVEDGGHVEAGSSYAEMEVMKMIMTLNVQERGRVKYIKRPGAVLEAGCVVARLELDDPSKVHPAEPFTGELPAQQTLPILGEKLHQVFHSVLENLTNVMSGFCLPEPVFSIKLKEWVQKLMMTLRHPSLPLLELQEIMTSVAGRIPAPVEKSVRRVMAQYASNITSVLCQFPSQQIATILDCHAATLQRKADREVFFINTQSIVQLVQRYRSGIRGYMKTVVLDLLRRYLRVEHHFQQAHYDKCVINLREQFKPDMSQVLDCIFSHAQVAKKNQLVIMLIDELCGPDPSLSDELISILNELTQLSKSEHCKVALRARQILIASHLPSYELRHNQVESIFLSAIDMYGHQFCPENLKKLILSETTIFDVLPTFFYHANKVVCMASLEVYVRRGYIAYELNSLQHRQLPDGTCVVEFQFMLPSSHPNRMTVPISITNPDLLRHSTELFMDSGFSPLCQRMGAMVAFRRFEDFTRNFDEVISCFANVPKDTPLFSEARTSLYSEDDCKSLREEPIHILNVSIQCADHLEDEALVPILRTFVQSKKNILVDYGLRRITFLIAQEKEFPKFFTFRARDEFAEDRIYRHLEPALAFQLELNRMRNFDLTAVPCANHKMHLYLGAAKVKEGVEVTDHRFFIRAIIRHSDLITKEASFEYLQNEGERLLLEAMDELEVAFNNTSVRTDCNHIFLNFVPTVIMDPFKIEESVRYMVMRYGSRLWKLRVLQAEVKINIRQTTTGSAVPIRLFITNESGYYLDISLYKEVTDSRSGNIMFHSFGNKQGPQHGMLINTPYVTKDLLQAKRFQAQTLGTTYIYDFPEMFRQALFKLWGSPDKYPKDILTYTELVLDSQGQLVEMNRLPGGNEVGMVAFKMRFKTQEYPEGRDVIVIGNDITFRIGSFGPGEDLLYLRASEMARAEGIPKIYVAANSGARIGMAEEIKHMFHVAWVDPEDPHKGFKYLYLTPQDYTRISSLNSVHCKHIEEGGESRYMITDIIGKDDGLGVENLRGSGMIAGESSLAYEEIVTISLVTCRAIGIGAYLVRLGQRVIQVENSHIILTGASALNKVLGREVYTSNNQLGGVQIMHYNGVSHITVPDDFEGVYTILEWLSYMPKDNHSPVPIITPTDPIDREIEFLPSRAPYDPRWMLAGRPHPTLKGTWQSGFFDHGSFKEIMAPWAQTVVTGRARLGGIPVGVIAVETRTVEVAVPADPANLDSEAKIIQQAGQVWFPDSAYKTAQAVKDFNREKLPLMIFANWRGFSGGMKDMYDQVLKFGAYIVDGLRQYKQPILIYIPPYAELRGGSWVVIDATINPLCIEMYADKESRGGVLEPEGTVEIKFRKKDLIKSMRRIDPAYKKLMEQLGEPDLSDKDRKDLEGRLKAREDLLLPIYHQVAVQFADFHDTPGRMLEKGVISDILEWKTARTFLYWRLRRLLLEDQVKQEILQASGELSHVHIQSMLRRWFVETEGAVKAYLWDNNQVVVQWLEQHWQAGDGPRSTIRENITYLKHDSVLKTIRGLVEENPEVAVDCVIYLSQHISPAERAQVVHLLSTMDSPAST
Assay type: biochemical
Procedure: [3] Measurement of human ACC2 inhibition. Human ACC2 inhibition was measured using purified recombinant human ACC2 (hrACC2). […] The ACC2 was expressed in CHO cells by tetracycline induction and harvested in 5 liters of DMEM/F12 with glutamine, biotin, hygromycin and blasticidin with 1 μg/mL tetracycline (Invitrogen, Carlsbad, Calif.). The conditioned medium containing ACC2 was then applied to a Softlink Soft Release Avidin column (Promega, Madison, Wis.) and eluted with 5 mM biotin. […] The purified ACC2 was dialyzed in 50 mM Tris, 200 mM NaCl, 4 mM DTT, 2 mM EDTA, and 5% glycerol. […] The final conditions for the assay were 50 mM HEPES, pH7.5, 5 mM MgCl2, 5 mM tripotassium citrate, 2 mM DTT, 0.5 mg/mL BSA, 30 μM acetyl-CoA, 50 μM ATP, and 8 mM KHCO3. Typically, a 10 μl reaction was run for 1 hour at room temperature, and 10 μl of Transcreener stop and detect buffer was added and incubated for an additional 1 hour.

SMILES	IC50 [µM]
CCn1nc2c(c1C)OC1(CCN(C(=O)c3cc(F)c4nc[nH]c4c3)CC1)CC2=O [3.020]	0.139
Cc1nc2c(F)cc(C(=O)N3CCC4(CC3)CC(=O)c3nn(C(C)C)cc3O4)cc2[nH]1 [3.024]	0.07
CCn1nc2c(c1C)OC1(CCN(C(=O)c3cc(C)c4ncn(C)c4c3)CC1)CC2=O [3.025]	0.049
CCn1nc2c(c1C)OC1(CCN(C(=O)c3ccc4nc[nH]c4c3)CC1)CC2=O [3.026]	0.168
CC(C)n1cc2c(n1)C(=O)CC1(CCN(C(=O)c3ccc4cn(C)nc4c3)CC1)O2 [5.001]	0.675
Cc1ccc2cc(C(=O)N3CCC4(CC3)CC(=O)c3nn(C(C)(C)C)cc3O4)ccc2c1 [6.005]	0.048
CC(C)n1cc2c(n1)C(=O)CC1(CCN(C(=O)c3ccc4sncc4c3)CC1)O2 [7.006]	0.092
CCn1nc2c(c1C)OC1(CCN(C(=O)c3cc(C)c4sncc4c3)CC1)CC2=O [7.008]	0.093
Cc1cc(C(=O)N2CCC3(CC2)CC(=O)c2nn(C(C)C)cc2O3)cc2ncn(C)c12 [8.002]	0.059
CCn1nc2c(c1C)OC1(CCN(C(=O)c3cc(C)c4c(c3)ncn4C)CC1)CC2=O [8.003]	0.087
CCn1nc2c(c1C)OC1(CCN(C(=O)c3ccc4c(c3)nc(C)n4CC)CC1)CC2=O [8.004]	0.481
CCn1nc2c(c1C)OC1(CCN(C(=O)c3ccc4c(c3)ncn4C)CC1)CC2=O [8.005]	0.159
CCn1nc2c(c1C)OC1(CCN(C(=O)c3ccc4c(c3)nc(C)n4C)CC1)CC2=O [8.006]	0.266
Cn1cnc2cc(C(=O)N3CCC4(CC3)CC(=O)c3nn(C(C)(C)C)cc3O4)ccc21 [8.007]	0.058
CCn1c(C)nc2cc(C(=O)N3CCC4(CC3)CC(=O)c3nn(C(C)(C)C)cc3O4)ccc21 [8.008]	0.052
Cc1nc2cc(C(=O)N3CCC4(CC3)CC(=O)c3nn(C(C)(C)C)cc3O4)ccc2n1C [8.009]	0.047
CCn1nc2c(c1C)OC1(CCN(C(=O)c3ccc4c(c3)nc(O)n4C)CC1)CC2=O [8.011]	0.186
CC(C)n1cc2c(n1)C(=O)CC1(CCN(C(=O)c3ccc4ocnc4c3)CC1)O2 [9.001]	0.3
CC(C)(C)n1cc2c(n1)C(=O)CC1(CCN(C(=O)c3ccc4ocnc4c3)CC1)O2 [9.002]	0.291
COc1cc(C(=O)N2CCC3(CC2)CC(=O)c2nn(C(C)C)cc2O3)cc2nc(C)oc12 [9.004]	0.083
CCn1nc2c(c1C)OC1(CCN(C(=O)c3cc(OC)c4oc(C)nc4c3)CC1)CC2=O [9.005]	0.179

SMILES	IC50 [µM]
CCn1nc2c(c1C)OC1(CCN(C(=O)c3ccc4ncsc4c3)CC1)CC2=O [10.001]	0.285
CCn1nc2c(c1C)OC1(CCN(C(=O)c3ccc4c(c3)N(C)C(=O)CC4)CC1)CC2=O [12.001]	0.299
CN1C(=O)CCc2ccc(C(=O)N3CCC4(CC3)CC(=O)c3nn(C(C)(C)C)cc3O4)cc21 [12.003]	0.052
CC(C)(C)n1cc2c(n1)C(=O)CC1(CCN(C(=O)c3ccc4c(c3)NC(=O)CO4)CC1)O2 [12.005]	0.045
CCn1nc2c(c1C)OC1(CCN(C(=O)c3ccc4c(c3)CCC(=O)N4)CC1)CC2=O [13.001]	0.421
CCn1nc2c(c1C)OC1(CCN(C(=O)c3ccc4c(c3)OCC(=O)N4)CC1)CC2=O [13.002]	0.861
CC(C)(C)n1cc2c(n1)C(=O)CC1(CCN(C(=O)c3ccc4c(c3)OCC(=O)N4)CC1)O2 [13.003]	0.049
CCn1nc2c(c1C)OC1(CCN(C(=O)c3ccc4sc(C)nc4c3)CC1)CC2=O [14.002]	0.176
CCn1nc2c(c1C)OC1(CCN(C(=O)c3ccc4ncccc4c3)CC1)CC2=O [15.003]	0.179
CCn1nc2c(c1C)OC1(CCN(C(=O)c3ccc4cccnc4c3)CC1)CC2=O [16.002]	0.25
CCn1nc2c(c1C)OC1(CCN(C(=O)c3ccc4occc4c3)CC1)CC2=O [17.002]	0.283
CC(C)n1cc2c(n1)C(=O)CC1(CCN(C(=O)c3ccc4oncc4c3)CC1)O2 [22.001]	> 1
CC(C)(C)n1cc2c(n1)C(=O)CC1(CCN(C(=O)c3ccc4oncc4c3)CC1)O2 [22.002]	0.518
CCn1nc2c(c1C)OC1(CCN(C(=O)c3ccc4oncc4c3)CC1)CC2=O [22.003]	> 1
Cc1noc2cc(C(=O)N3CCC4(CC3)CC(=O)c3nn(C(C)C)cc3O4)ccc12 [23.001]	0.585
Cc1noc2cc(C(=O)N3CCC4(CC3)CC(=O)c3nn(C(C)(C)C)cc3O4)ccc12 [23.002]	0.055
CCn1nc2c(c1C)OC1(CCN(C(=O)c3ccc4c(C)noc4c3)CC1)CC2=O [23.003]	0.335
CC(C)n1cc2c(n1)C(=O)CC1(CCN(C(=O)c3ccc4cnoc4c3)CC1)O2 [23.004]	> 1
CC(C)(C)n1cc2c(n1)C(=O)CC1(CCN(C(=O)c3ccc4cnoc4c3)CC1)O2 [23.005]	0.158
CC(C)n1cc2c(n1)C(=O)CC1(CCN(C(=O)c3ccc4cnsc4c3)CC1)O2 [24.002]	0.198

Now those with a lower IC50, led by results:

IC50 [µM]	SMILES
0.017	Cc1nc2c(F)cc(C(=O)N3CCC4(CC3)CC(=O)c3nn(C(C)(C)C)cc3O4)cc2[nH]1 [3.019]
0.039	CC(C)n1cc2c(n1)C(=O)CC1(CCN(C(=O)c3cc(F)c4nc[nH]c4c3)CC1)O2 [3.021]
0.014	CC(C)(C)n1cc2c(n1)C(=O)CC1(CCN(C(=O)c3cc(F)c4nc[nH]c4c3)CC1)O2 [3.022]
0.015	Cc1cc(C(=O)N2CCC3(CC2)CC(=O)c2nn(C(C)(C)C)cc2O3)cc2c1ncn2C [3.023]
0.042	Cc1nc2ccc(C(=O)N3CCC4(CC3)CC(=O)c3nn(C(C)(C)C)cc3O4)cc2n1C [3.027]
0.013	CCn1nc2c(c1C)OC1(CCN(C(=O)c3ccc4ccc(OC)cc4c3)CC1)CC2=O [6.001]
0.002	COc1ccc2ccc(C(=O)N3CCC4(CC3)CC(=O)c3nn(C(C)(C)C)cc3O4)cc2c1 [6.003]
0.007	COc1cccc2cc(C(=O)N3CCC4(CC3)CC(=O)c3nn(C(C)(C)C)cc3O4)ccc12 [6.006]
0.04	CCn1nc2c(c1C)OC1(CCN(C(=O)c3ccc4ccccc4c3)CC1)CC2=O [6.007]
0.016	CC(C)n1cc2c(n1)C(=O)CC1(CCN(C(=O)c3ccc4snc(N)c4c3)CC1)O2 [7.001]
0.003	CC(C)(C)n1cc2c(n1)C(=O)CC1(CCN(C(=O)c3ccc4snc(N)c4c3)CC1)O2 [7.002]
0.019	CCn1nc2c(c1C)OC1(CCN(C(=O)c3ccc4snc(N)c4c3)CC1)CC2=O [7.003]
0.023	CC(C)(C)n1cc2c(n1)C(=O)CC1(CCN(C(=O)c3ccc4sncc4c3)CC1)O2 [7.004]
0.036	CCn1nc2c(c1C)OC1(CCN(C(=O)c3ccc4sncc4c3)CC1)CC2=O [7.005]
0.005	Cc1cc(C(=O)N2CCC3(CC2)CC(=O)c2nn(C(C)(C)C)cc2O3)cc2cnsc12 [7.007]
0.018	Cc1cc(C(=O)N2CCC3(CC2)CC(=O)c2nn(C(C)C)cc2O3)cc2cnsc12 [7.009]
0.036	Cc1cc(C(=O)N2CCC3(CC2)CC(=O)c2nn(C(C)(C)C)cc2O3)cc2ncn(C)c12 [8.001]
0.018	Cn1c(O)nc2cc(C(=O)N3CCC4(CC3)CC(=O)c3nn(C(C)(C)C)cc3O4)ccc21 [8.010]

IC50 [µM]	SMILES
0.029	COc1cc(C(=O)N2CCC3(CC2)CC(=O)c2nn(C(C)(C)C)cc2O3)cc2nc(C)oc12 [9.003]
0.033	CCn1nc2c(c1C)OC1(CCN(C(=O)c3cc(C)c4[nH]c(=O)ccc4c3)CC1)CC2=O [11.001]
0.011	Cc1cc(C(=O)N2CCC3(CC2)CC(=O)c2nn(C(C)(C)C)cc2O3)cc2ccc(=O)[nH]c12 [11.002]
0.036	CCn1nc2c(c1C)OC1(CCN(C(=O)c3ccc4c(c3)NC(=O)CC4)CC1)CC2=O [12.002]
0.014	CC(C)(C)n1cc2c(n1)C(=O)CC1(CCN(C(=O)c3ccc4c(c3)NC(=O)CC4)CC1)O2 [12.004]
0.033	CC(C)(C)n1cc2c(n1)C(=O)CC1(CCN(C(=O)c3ccc4c(c3)CCC(=O)N4)CC1)O2 [13.004]
0.007	Cc1nc2cc(C(=O)N3CCC4(CC3)CC(=O)c3nn(C(C)(C)C)cc3O4)ccc2s1 [14.001]
0.026	Cc1ccc2cc(C(=O)N3CCC4(CC3)CC(=O)c3nn(C(C)(C)C)cc3O4)ccc2n1 [15.001]
0.011	CC(C)(C)n1cc2c(n1)C(=O)CC1(CCN(C(=O)c3ccc4ncccc4c3)CC1)O2 [15.002]
0.012	CC(C)(C)n1cc2c(n1)C(=O)CC1(CCN(C(=O)c3ccc4cccnc4c3)CC1)O2 [16.001]
0.033	CC(C)(C)n1cc2c(n1)C(=O)CC1(CCN(C(=O)c3ccc4occc4c3)CC1)O2 [17.001]
0.003	Cn1ccc2ccc(C(=O)N3CCC4(CC3)CC(=O)c3nn(C(C)(C)C)cc3O4)cc21 [18.001]
0.033	CCn1nc2c(c1C)OC1(CCN(C(=O)c3ccc4ccn(C)c4c3)CC1)CC2=O [18.002]
0.009	CC(C)(C)n1cc2c(n1)C(=O)CC1(CCN(C(=O)c3ccc4c(=O)[nH]ccc4c3)CC1)O2 [19.001]
0.028	CC(C)(C)n1cc2c(n1)C(=O)CC1(CCN(C(=O)c3ccc4[nH]c(=O)oc4c3)CC1)O2 [20.001]
0.016	CC(C)(C)n1cc2c(n1)C(=O)CC1(CCN(C(=O)c3ccc4cc[nH]c(=O)c4c3)CC1)O2 [21.001]
0.023	CC(C)(C)n1cc2c(n1)C(=O)CC1(CCN(C(=O)c3ccc4cnsc4c3)CC1)O2 [24.001]
